Results: PMC7766762, “New Eudesmane-Type Sesquiterpene Glycosides from the Leaves of Aster koraiensis” (Plants, 2020)
Entries after “also recorded” stand apart in the source; their conditions may differ.

Tests used:
[1] = Cell viability (MTT assay) in LPS-treated RAW 264.7 macrophages; type: cell-based; conditions: mouse, RAW 264.7 macrophages treated with LPS, compound 100 μM and LPS 1 μg/mL, pretreated 1 h, incubated 24 h, read-out: Cell Viabilities (%)
Method: [table] Cell viability and nitrite levels were measured using MTT and Griess reaction assays, respectively.

[2] = test system: LPS-stimulated PGE2 production in RAW 264.7 macrophages; experiment: LPS-induced PGE2 production in RAW 264.7 macrophages (EIA kit); type: cell-based; conditions: for IC50 / inhibition at 100 µM: Mus musculus, RAW264.7, RAW 264.7; for IC50: LPS 1 μg/mL, 24 h; for inhibition at 100 µM: compound 100 μM and LPS 1 μg/mL, pretreated 1 h, incubated 24 h, read-out: Inhibition Rate (%) PGE2
Method: (§1) All the isolates 1–9 obtained from the leaves of A. koraiensis were evaluated for their inhibitory effects of LPS-stimulated NO and PGE2 production in RAW 264.7 macrophages at non-toxic concentrations (Table 3).
(§2) Figure 5 Inhibitory effects of compound 7 on LPS-stimulated NO (A) and PGE2 productions (B) in RAW 264.7 macrophages. Cells were pretreated with different concentrations (25, 50, or 100 μM) of compound 7 for 1 h, then with LPS (1 μg/mL), and then were incubated for 24 h. l-N^6-(1-Iminoethyl)lysine (l-NIL, 10 μM) and N-[2-(cyclohexyloxy)-4-nitrophenyl]-methanesulfonamide (NS-398, 10 μM) were used as positive NO and PGE2 production inhibitors, respectively.
PGE2 levels in cell culture mediums were determined using EIA kits (R&D Systems, MN) as reported in the previous paper.

[3] = test system: LPS-stimulated NO production in RAW 264.7 macrophages; experiment: LPS-induced NO production in RAW 264.7 macrophages (Griess reaction); type: cell-based; conditions: for IC50 / inhibition at 100 µM: Mus musculus, RAW264.7, RAW 264.7; for IC50: LPS 1 μg/mL, 24 h; for inhibition at 100 µM: compound 100 μM and LPS 1 μg/mL, pretreated 1 h, incubated 24 h, read-out: Inhibition Rate (%) NO
Method: as §1, §2
Cell viability and nitrite levels were measured using MTT and Griess reaction assays, respectively.

[4] = LPS-stimulated RAW 264.7 cells, non-toxic concentrations

| melting point [°C] | IC50 [2] [µM] | IC50 [3] [µM] | SMILES | viability at 24 h, 100 μM [1] [%] | inhibition at 100 µM [2] [%] | inhibition at 100 µM [3] [%] | Inhibitory effect on PGE2 production (in words) [2, 4] | Inhibitory effect on NO production (in words) [3, 4] |
| --- | --- | --- | --- | --- | --- | --- | --- | --- |
|  | > 100 | 95.7 | COc1cc(/C=C/C(=O)O[C@H]2C[C@@H](C(C)C)[C@@H](O[C@@H]3O[C@H](CO)[C@@H](O)[C@H](O)[C@H]3O)[C@H]3C(C)=CC[C@@H](O)[C@]23C)ccc1O [Compound 7, (1R,5S,6R,7S,9S,10R)-9-O-(E-feruloyl)-1,6,9-trihydroxy-eudesm-3-ene-6-O-β-D-glucopyranoside] | 89.3 | 41.3 | 53.1 | weak inhibitory effects; also recorded: weak inhibitory activities | weak inhibitory effects; also recorded: weak inhibitory activities |
|  | > 100 | > 100 | O=C(/C=C/c1ccc(O)c(O)c1)O[C@@H]1C[C@](O)(C(=O)O)C[C@@H](OC(=O)/C=C/c2ccc(O)c(O)c2)[C@H]1O [Compound 8, 3,5-dicaffeoylquinic acid] | 93.4 | 1.27 | 6.25 |  |  |
|  | > 100 | > 100 | O=C(/C=C/c1ccc(O)c(O)c1)O[C@@H]1[C@H](O)C[C@@](O)(C(=O)O)C[C@H]1OC(=O)/C=C/c1ccc(O)c(O)c1 [Compound 9, 4,5-dicaffeoylquinic acid] | 100 | 20.4 | 4.64 |  |  |

Continued, compound first:

| SMILES | melting point [°C] | IC50 [2] [µM] | IC50 [3] [µM] | viability at 24 h, 100 μM [1] [%] | inhibition at 100 µM [2] [%] | inhibition at 100 µM [3] [%] | Inhibitory effect on PGE2 production (in words) [2, 4] | Inhibitory effect on NO production (in words) [3, 4] |
| --- | --- | --- | --- | --- | --- | --- | --- | --- |
| CC1=CCC(OC2OC(CO)C(O)C(O)C2O)C2(C)C(O)CC(C(C)C)C(OC3OC(CO)C(O)C(O)C3O)C12 [Compound 1, (1R,5S,6R,7S,9S,10S)-1,6,9-trihydroxy-eudesm-3-ene-1,6-di-O-β-D-glucopyranoside] | 167.2 | > 100 | > 100 | 102 | 0 | 1.79 |  |  |
| CC1=CC[C@@H](O)[C@@]2(C)[C@H]1[C@H](O[C@@H]1O[C@H](CO)[C@@H](O)[C@H](O)[C@H]1O)[C@H](C(C)C)C[C@@H]2O [Compound 2, (1R,5S,6R,7S,9S,10R)-1,6,9-trihydroxy-eudesm-3-ene-6-O-β-D-glucopyranoside] |  | > 100 | > 100 | 105 | 0 | 3.2 |  |  |
| CC1=CCC(OC2OC(CO)C(O)C(O)C2O)C2(C)C(O)CC(C(C)(C)O)C(OC3OC(CO)C(O)C(O)C3O)C12 [Compound 3, (1R,5S,6S,7R,9S,10S)-1,6,9,11-tetrahydroxy-eudesm-3-ene-1,6-di-O-β-D-glucopyranoside] | 230 | > 100 | > 100 | 94 | 10.5 | 4.66 |  |  |
| CC1=CC[C@@H](O)[C@@]2(C)[C@H]1[C@H](O[C@@H]1O[C@H](CO)[C@@H](O)[C@H](O)[C@H]1O)[C@H](C(C)(C)O)C[C@@H]2O [Compound 4, (1R,5S,6S,7R,9S,10R)-1,6,9,11-tetrahydroxy-eudesm-3-ene-6-O-β-D-glucopyranoside] |  | > 100 | > 100 | 102 | 6.15 | 1.31 |  |  |
| CC1=CC[C@@H](O)[C@]2(C)[C@@H](OC(=O)/C=C/c3ccc(O)cc3)C[C@@H](C(C)C)[C@@H](O[C@@H]3O[C@H](CO)[C@@H](O)[C@H](O)[C@H]3O)[C@@H]12 [Compound 5, (1R,5S,6R,7S,9S,10R)-9-O-(E-p-coumaroyl)-1,6,9-trihydroxy-eudesm-3-ene-6-O-β-D-glucopyranoside] |  | > 100 | > 100 | 104 | 0 | 8.39 |  |  |
| CC1=CC[C@@H](O)[C@]2(C)[C@@H](OC(=O)/C=C\c3ccc(O)cc3)C[C@@H](C(C)C)[C@@H](O[C@@H]3O[C@H](CO)[C@@H](O)[C@H](O)[C@H]3O)[C@@H]12 [Compound 6, (1R,5S,6R,7S,9S,10R)-9-O-(Z-p-coumaroyl)-1,6,9-trihydroxy-eudesm-3-ene-6-O-β-D-glucopyranoside] |  | > 100 | > 100 | 108 | 2.16 | 7.01 |  |  |
